Experimental data from PubChem BioAssay (NCI).
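A five-concentration, 48-hour dose response in 96-well plates underlies each endpoint, interpolated linearly between surrounding concentrations. GI50 marks 50% less growth. TGI marks complete inhibition of growth.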

Tests used:
Test in all cases: NCI tumour cell line growth inhibition, 48 h
[1] = test system: DLD-1 colon
[2] = test system: LXFL 529 NSCLC
[3] = test system: RXF-631 renal
[4] = test system: M19-MEL melanoma
[5] = test system: SNB-78 CNS
[6] = test system: DMS 273 small cell lung
[7] = test system: MDA-N
[8] = test system: XF 498 CNS

| SMILES | TGI [1] [µM] | TGI [2] [µM] | TGI [3] [µM] | TGI [4] [µM] | TGI [5] [µM] | TGI [6] [µM] | GI50 [7] [µM] | TGI [7] [µM] | TGI [8] [µM] |
| --- | --- | --- | --- | --- | --- | --- | --- | --- | --- |
| CCOC(=O)C1(C)CCC(C(C(=O)O)C(=O)O)CC1=O (stereo unspecified) | > 100 | > 100 | > 100 | > 100 | > 100 | > 100 | – | – | – |
| O=C(O)CN(CCN(CC(=O)O)CC(=O)O)CC(=O)O.[Mn+2] | – | – | – | – | – | – | > 100 | > 100 | – |
| OCC1CC[N-]CC1.OCC1CC[N-]CC1.[Cl][Pt+2]([Cl])([Cl])[Cl] | – | – | – | – | – | – | 28.9 | – | – |
| c1ccc(C(c2ccccc2)c2ccccn2)cc1 | > 100 | – | > 100 | > 100 | > 100 | > 100 | – | – | > 100 |
| COc1cc(OC)c(OC)cc1/C=C/c1nc2ccccc2s1 | – | – | – | – | – | – | – | > 100 | – |
| CCCCCCCCCCCC[C@@H](O)[C@H]1CC[C@H]([C@H](O)CC[C@H](O)[C@@H]2CC[C@@H](CCCCCCCC3=C[C@H](C)OC3=O)O2)O1 | – | – | – | – | – | – | > 50 | > 50 | – |
| CCCCCC/C=C\CCCCCCCCC(=O)c1cccc(OC)c1OC | – | – | – | – | – | – | – | > 100 | – |
| Cn1c(=O)c2nc3sc4c(n3c2n(C)c1=O)C(=O)c1ccccc1C4=O | > 100 | > 100 | > 100 | > 100 | > 100 | > 100 | – | > 100 | > 100 |
| COc1cc(/C=C2\NC(=O)C(Cc3cc(OC)c(OC)c(C)c3OC)N(C(C)=O)C2=O)c(OC)c(C)c1OC (stereo unspecified) | > 100 | > 100 | – | > 100 | – | > 100 | – | – | – |
| NNC(=O)C(=O)NN=C(C(Cl)(Cl)CO)C(Cl)(Cl)CO | 57.4 | > 100 | 55.7 | 46.8 | > 100 | > 100 | – | – | > 100 |
| O=C(CCCC(=O)Nc1ccc(Cl)cc1Cl)CC(=O)c1ccc2ccccc2c1 | > 100 | > 100 | > 100 | > 100 | > 100 | > 100 | – | – | – |
| O=C1c2ccccc2N2OC3(N4CCOCC4)CCCC3C12c1ccccc1 (stereo unspecified) | > 100 | > 100 | – | > 100 | > 100 | > 100 | – | – | > 100 |
| OC(c1ccccc1Br)(c1ccccc1Br)C(F)(F)F | 97.6 | > 100 | – | 74 | – | 40.7 | – | – | 38.2 |
| CC1NOC(=O)C1N=Nc1ccc(Cl)cc1Cl (stereo unspecified) | > 100 | 45.3 | > 100 | 64.3 | 69.2 | 56.8 | – | – | 45 |
| CC12OC(=O)C(C#N)C1(C)C1C(=O)CCCC12 (stereo unspecified) | > 100 | > 100 | – | > 100 | – | > 100 | – | – | > 100 |
| CCCCCCCCOCC(COC(=O)CCCCCCC)OC(=O)CCCCCCC (stereo unspecified) | > 100 | > 100 | > 100 | > 100 | – | > 100 | – | – | – |
| C1CCC(N=C2N(C3CCCCC3)C(=NC3CCCCC3)N2C2CCCCC2)CC1 | > 100 | > 100 | – | > 100 | – | > 100 | – | – | > 100 |
| CC(=O)Oc1c(C(=O)[O-])cc(C(C)C)cc1C(C)C.CC(=O)Oc1c(C(=O)[O-])cc(C(C)C)cc1C(C)C.CC(=O)Oc1c(C(=O)[O-])cc(C(C)C)cc1C(C)C.CC(=O)Oc1c(C(=O)[O-])cc(C(C)C)cc1C(C)C.[Cu+2].[Cu+2] | – | – | – | – | – | – | 18.8 | 33.4 | – |
| NC(N)=NCCCC(NCc1c2ccccc2nc2ccccc12)C(=O)O (stereo unspecified) | 50.5 | > 100 | – | > 100 | – | > 100 | – | > 100 | – |
| COC(=O)C(C(=O)C(=O)Nc1c(Cl)cc([N+](=O)[O-])cc1Cl)c1csc(-n2nc(C3=CCCCC3)cc2-c2ccccc2)n1 (stereo unspecified) | > 100 | > 100 | > 100 | > 100 | > 100 | > 100 | – | – | – |
| COc1ccc(/C=C2\C(=O)N(NC(C)=O)c3ccccc32)cc1 | > 100 | – | > 100 | > 100 | > 100 | > 100 | – | – | > 100 |
